The record followed here is patent US11753407B2, “Compounds for treating spinal muscular atrophy” (PTC Therapeutics, Inc., priority 2012, dated 2023).

For series [1], the system named is SMN2 minigene mRNA (SMN2-A minigene) in HEK293H cells. Nature of the series: SMN2 minigene mRNA splicing RT-qPCR assay in cultured cells. The series is classed as cell-based, human. The note with it: Homo sapiens, HEK293-H; concentration increasing full length SMN2 mRNA 1.5-fold relative to vehicle-treated cells; HEK293H cells with SMN2-A minigene, 24 hours, 7-point concentration data; read-out: EC1.5x for production of full length SMN2 mRNA. Summed up: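 EC1.5× = concentration raising full-length SMN2 minigene mRNA 1.5-fold over vehicle, from 7-point curves in duplicate. Stably transfected HEK293H cells exposed 24 h at 37 °C; lysates assayed by multiplex RT-qPCR, minigene FL signal normalized to GAPDH via modified ΔΔCt.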

The test system of series [2] is Smn protein in SMA patient fibroblast cells (GM03813). Put plainly: Smn protein assay in cultured cells (SMN HTRF). Format: cell-based, human. The settings on record: SMA patient fibroblast cells, 48 hours; for EC1.5x for Smn protein expression: 7-point concentration curve, SMN HTRF, concentration producing 1.5 times Smn protein vs DMSO vehicle control; for maximum fold (Fold) increase of Smn protein: 7-point concentration data, fold relative to vehicle control. Summed up: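 Smn protein quantified by HTRF with anti-SMN d2/kryptate pair, 665/620 nm ratio blank-corrected, in RIPA lysates of GM03813 fibroblasts after 48 h compound exposure (7 concentrations, 3.16-fold steps, triplicates). Values: concentration producing 1.5× vehicle Smn level, and maximal fold increase.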

By melting point is commonly meant the temperature, or range, at which the solid turns liquid. Regarding `CCN1CCC(c2cc(C)c3nc(-c4ccc5c(cnn5C)c4)cc(=O)n3c2)CC1` [Compound 786, 7-(1-ethylpiperidin-4-yl)-9-methyl-2-(1-methyl-1H-indazol-5-yl)-4H-pyrido[1,2-a]pyrimidin-4-one], the melting point was in the range of 236 to 240 °C. In addition, the EC (1.5-fold increase) in series [1] lay within 0.1 to 0.3 µM. In addition, in series [2], the “EC1.5x for Smn protein expression” value was “*** (an EC1.5× between >0.3 μM and ≤1 μM is indicated by three stars (***))”; the “maximum fold (Fold) increase of Smn protein” value (from here on “maximum fold (Fold) increase”) was “**** (a fold increase between >1.5 and ≤1.65 is indicated by four stars (****))”.
As to `CCN1CCN(c2ccc3nc(-c4cc5cnc(C)cn5n4)cc(=O)n3c2)CC1` [Compound 466, 7-(4-ethylpiperazin-1-yl)-2-(6-methylpyrazolo[1,5-a]pyrazin-2-yl)-4H-pyrido[1,2-a]pyrimidin-4-one], the melting point was in the range of 220 to 230 °C. Moreover, the EC (1.5-fold increase) in series [1] was less than 0.1 µM. In addition, in series [2], the “EC1.5x for Smn protein expression” value is “*** (an EC1.5× between >0.3 μM and ≤1 μM is indicated by three stars (***))”; the “maximum fold (Fold) increase” value is listed as “***** (a fold increase >1.65 is indicated by five stars (*****))”.
In the case of `Cc1cn2nc(-c3cc(=O)n4cc(N5C[C@@H](C)N[C@@H](C)C5)cc(C)c4n3)cc2c(C)n1` [Compound 562, 7-[(3R,5S)-3,5-dimethylpiperazin-1-yl]-2-(4,6-dimethylpyrazolo[1,5-a]pyrazin-2-yl)-9-methyl-4H-pyrido[1,2-a]pyrimidin-4-one], the melting point was in the range of 273 to 283 °C. The EC (1.5-fold increase) in series [1] is 0.3 to 1 µM. In series [2], the “maximum fold (Fold) increase” value is “** (a fold increase between >1.2 and ≤1.35 is indicated by two stars (**))”.
`CCCN1CCC(c2ccc3nc(-c4cc5c(CC)nc(C)cn5n4)cc(=O)n3c2)CC1` [Compound 660, 2-(4-ethyl-6-methylpyrazolo[1,5-a]pyrazin-2-yl)-7-(1-propylpiperidin-4-yl)-4H-pyrido[1,2-a]pyrimidin-4-one] gave a melting point of 203 to 204 °C. Besides, the EC (1.5-fold increase) in series [1] was less than 0.1 µM. For the same compound, in series [2], the “EC1.5x for Smn protein expression” value is on record as “**** (an EC1.5x≤0.3 μM is indicated by four stars (****))”; the “maximum fold (Fold) increase” value is “**** (a fold increase between >1.5 and ≤1.65 is indicated by four stars (****))”.
Take `Cc1nc2ccc(-c3cc(=O)n4cc(N5CCN6CCC[C@H]6C5)ccc4n3)cc2o1` [Compound 197, 7-[(8aS)-hexahydropyrrolo[1,2-a]pyrazin-2(1H)-yl]-2-(2-methyl-1,3-benzoxazol-6-yl)-4H-pyrido[1,2-a]pyrimidin-4-one]: the melting point was 214 to 217 °C. Also, in series [1], the EC (1.5-fold increase) is 0.1 to 0.3 µM. Also, in series [2], the “EC1.5x for Smn protein expression” value is “**** (an EC1.5x≤0.3 μM is indicated by four stars (****))” and the “maximum fold (Fold) increase” value is given as “***** (a fold increase >1.65 is indicated by five stars (*****))”.
As to `Cc1cc2cc(-c3cc(=O)n4cc(N5CCN(CCO)CC5)ccc4n3)oc2c(C)n1` [Compound 529, 2-(5,7-dimethylfuro[2,3-c]pyridin-2-yl)-7-[4-(2-hydroxyethyl)piperazin-1-yl]-4H-pyrido[1,2-a]pyrimidin-4-one], the melting point was in the range of 256 to 258 °C. Further, the EC (1.5-fold increase) in series [1] is less than 0.1 µM. In series [2], the “EC1.5x for Smn protein expression” value was “*** (an EC1.5× between >0.3 μM and ≤1 μM is indicated by three stars (***))”; the “maximum fold (Fold) increase” value is “***** (a fold increase >1.65 is indicated by five stars (*****))”.
In turn, `COc1ccc(-c2cc(=O)n3cc(N4CCNC(C)(C)C4)ccc3n2)cc1OC` [Compound 7, 2-(3,4-dimethoxyphenyl)-7-(3,3-dimethylpiperazin-1-yl)-4H-pyrido[1,2-a]pyrimidin-4-one] registered a melting point of 138 to 140 °C. The EC (1.5-fold increase) in series [1] fell in the range of 0.3 to 1 µM. The “maximum fold (Fold) increase” value in series [2] is “*** (a fold increase between >1.35 and ≤1.5 is indicated by three stars (***))”.
The compound `Cc1nc2ccc(-c3cc(=O)n4cc(N5CCN(C)[C@@H](C)C5)ccc4n3)cc2o1` [Compound 234, 7-[(3S)-3,4-dimethylpiperazin-1-yl]-2-(2-methyl-1,3-benzoxazol-6-yl)-4H-pyrido[1,2-a]pyrimidin-4-one] registered a melting point of 205 to 209 °C. Besides, the EC (1.5-fold increase) in series [1] is less than 0.1 µM. In series [2], the “EC1.5x for Smn protein expression” value is “**** (an EC1.5x≤0.3 μM is indicated by four stars (****))” and the “maximum fold (Fold) increase” value was “***** (a fold increase >1.65 is indicated by five stars (*****))”.
Take `Cn1cc2cc(-c3cc(=O)n4cc(C5=CCNCC5)ccc4n3)ccc2n1` [Compound 474, 2-(2-methyl-2H-indazol-5-yl)-7-(1,2,3,6-tetrahydropyridin-4-yl)-4H-pyrido[1,2-a]pyrimidin-4-one]: the melting point was 239 to 241 °C. The EC (1.5-fold increase) in series [1] was less than 0.1 µM. For the same compound, in series [2], the “EC1.5x for Smn protein expression” value is “**** (an EC1.5x≤0.3 μM is indicated by four stars (****))”; the “maximum fold (Fold) increase” value was “**** (a fold increase between >1.5 and ≤1.65 is indicated by four stars (****))”.
Take `CCc1nc(C)cn2nc(-c3cc(=O)n4cc(N5C[C@H]6CNC[C@H]6C5)ccc4n3)cc12` [Compound 747, 2-(4-ethyl-6-methylpyrazolo[1,5-a]pyrazin-2-yl)-7-[(3aR,6aS)-hexahydropyrrolo[3,4-c]pyrrol-2(1H)-yl]-4H-pyrido[1,2-a]pyrimidin-4-one]: the melting point lay within 246 to 249 °C. The EC (1.5-fold increase) in series [1] is less than 0.1 µM. Besides, in series [2], the “EC1.5x for Smn protein expression” value is “**** (an EC1.5x≤0.3 μM is indicated by four stars (****))” and the “maximum fold (Fold) increase” value is “***** (a fold increase >1.65 is indicated by five stars (*****))”.
On to `Cc1cc(-c2cc(=O)n3cc(N4CCN[C@@H](C)C4)ccc3n2)cc2cnn(C)c12` [Compound 777, 2-(1,7-dimethyl-1H-indazol-5-yl)-7-[(3S)-3-methylpiperazin-1-yl]-4H-pyrido[1,2-a]pyrimidin-4-one], for which the melting point fell in the range of 248 to 250 °C. Further, the EC (1.5-fold increase) in series [1] was 1 to 3 µM. In series [2], the “EC1.5x for Smn protein expression” value is “** (an EC1.5× between >1 μM and ≤3 μM is indicated by two stars (**))”; the “maximum fold (Fold) increase” value is “*** (a fold increase between >1.35 and ≤1.5 is indicated by three stars (***))”.
Regarding `C[C@@H]1CN(c2ccc3nc(-c4ccc5c(c4)OCO5)cc(=O)n3c2)C[C@H](C)N1` [Compound 21, 2-(1,3-benzodioxol-5-yl)-7-[(3R,5S)-3,5-dimethylpiperazin-1-yl]-4H-pyrido[1,2-a]pyrimidin-4-one], the melting point lay within 198 to 201 °C. Besides, the EC (1.5-fold increase) in series [1] is 3 to 30 µM. The “maximum fold (Fold) increase” value in series [2] is “* (A maximum fold increase of ≤1.2 is indicated by one star (*))”.
Regarding `Cc1cn2nc(-c3cc(=O)n4cc(C5CCNCC5)cc(C)c4n3)cc2c(C)n1` [Compound 671, 2-(4,6-dimethylpyrazolo[1,5-a]pyrazin-2-yl)-9-methyl-7-(piperidin-4-yl)-4H-pyrido[1,2-a]pyrimidin-4-one], the melting point lay within 247 to 255 °C. Further, the EC (1.5-fold increase) in series [1] was less than 0.1 µM. In series [2], the “EC1.5x for Smn protein expression” value was “**** (an EC1.5x≤0.3 μM is indicated by four stars (****))” and the “maximum fold (Fold) increase” value was “***** (a fold increase >1.65 is indicated by five stars (*****))”.
